Legend:
[1] = target: T1, mu opioid receptor (MOR) (Homo sapiens, UniProt P35372); test: PathHunter β-arrestin recruitment assay, PAM mode with EC20 endomorphin-1; format: cell-based
Procedure, shortened: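 β-Arrestin recruitment to the receptor was tracked by chemiluminescent β-galactosidase activity from complementing fragments (ED on receptor, EA on β-arrestin). Per-compound outputs were EC50 and percent maximal response.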

[2] = target: T1, mu opioid receptor (MOR); test: Hit Hunter cAMP signaling assay (adenylyl cyclase inhibition), PAM mode with EC20 endomorphin-1; format: cell-based
[3] = maximal response for β-arrestin recruitment
[4] = β-arrestin recruitment, read-out: β-arr. EC50
[5] = adenylyl cyclase inhibition, read-out: cAMP EC50
[6] = maximal response for adenylyl cyclase inhibition
[7] = cAMP EC50, adenylyl cyclase inhibition
[8] = maximal response, β-arrestin recruitment
[9] = maximal response, adenylyl cyclase inhibition

T1 sequence (P35372 whole entry, the tested form may be a part): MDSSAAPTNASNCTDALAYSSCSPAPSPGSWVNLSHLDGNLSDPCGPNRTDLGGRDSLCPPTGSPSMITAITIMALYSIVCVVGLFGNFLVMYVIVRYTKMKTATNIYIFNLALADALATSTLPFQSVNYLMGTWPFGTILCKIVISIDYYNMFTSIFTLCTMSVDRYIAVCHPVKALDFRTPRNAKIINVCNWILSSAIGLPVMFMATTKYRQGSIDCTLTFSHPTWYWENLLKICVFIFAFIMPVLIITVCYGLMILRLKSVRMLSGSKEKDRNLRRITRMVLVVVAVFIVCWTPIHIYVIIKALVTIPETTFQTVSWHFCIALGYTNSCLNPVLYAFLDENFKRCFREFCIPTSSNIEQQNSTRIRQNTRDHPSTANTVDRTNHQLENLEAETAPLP

SMILES | β-arr Max. Resp. [1, 3] | EC50 [1, 4] [nM] | cAMP Max. Resp. [2, 6] | EC50 [2, 7] [nM] | further results
COc1ccc(C2CCCCN2S(=O)(=O)c2ccc(F)cc2)cc1Br (centres unmarked) [compound 13] | F (F represents a maximal response of > 60%) | > 2100 | F (F represents a maximal response of > 60%) |  | EC50 [2, 5]: > 2100 nM
Oc1ncc(F)c(N2CCCCC2c2cccc(C(F)(F)F)c2)n1 (centres unmarked) [compound 350] | D (D represents a maximal response of < 40%) | < 700 | D (D represents a maximal response of < 40%) |  | 
[2H]C1(c2ccc(F)c(Br)c2)C(F)CCCN1S(=O)(=O)c1cccc(Cl)c1 (centres unmarked) [Compound 32] | F (F represents a maximal response of > 60%) |  | D (D represents a maximal response of < 40%) |  | 
O=S(=O)(c1ccc(Cl)cc1)N1CCCCC1c1ccc(Br)c(F)c1 (racemic) [compound 71] | F (F represents a maximal response of > 60%) | > 2100 | D (D represents a maximal response of < 40%) |  | β-arrestin Max Response ([1]; β-arrestin recruitment, activity switching by MOR PAMs): F (F represents a maximal response of >60%); EC50 ([1]; β-arrestin recruitment, activity switching by MOR PAMs, read-out: β-arrestin EC50): > 2100 nM; cAMP Max Resp. ([2]; adenylyl cyclase inhibition, activity switching by MOR PAMs): D (D represents a maximal response of < 40%); EC50 ([2]; adenylyl cyclase inhibition, activity switching by MOR PAMs, read-out: cAMP EC50): > 2100 nM; EC50 [2, 5]: > 2100 nM
Fc1cnc(N2CCOCC2)nc1N1CCCCC1c1cccc(C(F)(F)F)c1 (centres unmarked) [compound 255] | D (D represents a maximal response of < 40%) | > 2100 | F (F represents a maximal response of > 60%) | > 2100 | 
Cc1cccc(C2CCCCN2c2nc(Cl)ncc2F)n1 (centres unmarked) [compound 414] | D (D represents a maximal response of < 40%) | < 700 | D (D represents a maximal response of < 40%) | < 700 | 
Fc1cnc(Cl)nc1N1CCOCC1c1cccc(C(F)(F)F)n1 (racemic) [Compound 186] | E (E represents a maximal response of 40-60%) | > 2100 | D (D represents a maximal response of < 40%) |  | EC50 [2, 5]: > 2100 nM
FC(F)(F)c1cccc(C2CCCCN2Cc2cccc(Cl)c2)n1 (centres unmarked) [compound 170] | F (F represents a maximal response of > 60%) | 700 to 2100 | E (E represents a maximal response of 40-60%) | < 700 | 
O=S(=O)(c1ccc(Cl)cc1)N1CCCCC1c1cccc(Cl)c1 (racemic) [compound 61] | F (F represents a maximal response of > 60%) | > 2100 | E (E represents a maximal response of 40-60%) |  | EC50 [2, 5]: > 2100 nM
COc1ccc(C2CCCCN2c2ccc(Br)cn2)cc1Br (centres unmarked) [compound 231] | E (E represents a maximal response of 40-60%) | > 2100 | E (E represents a maximal response of 40-60%) | > 2100 | 
Fc1ccc(Cl)cc1CN1CCCCC1c1ccc(Cl)c(C(F)(F)F)c1 (centres unmarked) [compound 150] | F (F represents a maximal response of > 60%) | < 700 | E (E represents a maximal response of 40-60%) | < 700 | 
Fc1ccc(C2CCCCN2c2nc(Cl)ncc2F)cn1 (centres unmarked) [compound 297] | E (E represents a maximal response of 40-60%) |  | E (E represents a maximal response of 40-60%) |  | EC50 [2]: > 2100 nM
Fc1cc(Cl)cc(CN2CCCCC2c2cccc(C(F)(F)F)n2)c1 (centres unmarked) [compound 164] | F (F represents a maximal response of > 60%) | 700 to 2100 | E (E represents a maximal response of 40-60%) | < 700 | 
FC(F)(F)c1cccc(CN2CCCCC2c2cccc(C(F)(F)F)n2)c1 (centres unmarked) [compound 175] | F (F represents a maximal response of > 60%) | > 2100 | E (E represents a maximal response of 40-60%) | > 2100 | 
CN(C)c1cccc(C2CCCCN2c2nc(N(C)C)ncc2F)n1 (centres unmarked) [compound 243] | F (F represents a maximal response of > 60%) | > 2100 | E (E represents a maximal response of 40-60%) | > 2100 | 
Fc1cc(C2CCCCN2Cc2cccc(Cl)c2)cc(C(F)(F)F)c1 (centres unmarked) [compound 157] | F (F represents a maximal response of > 60%) | > 2100 | E (E represents a maximal response of 40-60%) | > 2100 | 
COc1ncc(F)c(N2CCCCC2c2cccc(C(F)(F)F)c2)n1 (centres unmarked) [compound 271] | F (F represents a maximal response of > 60%) | > 2100 | E (E represents a maximal response of 40-60%) | 700 to 2100 | 
COc1ccc(N2CCCCC2c2cccc(C(F)(F)F)n2)cc1 (centres unmarked) [compound 474] |  | > 2100 |  |  | β-arr Max. Resp. [1, 8]: D (D represents a maximal response of < 40%); EC50 [2, 5]: > 2100 nM; cAMP Max. Resp. [2, 9]: D (D represents a maximal response of < 40%)
Fc1cnc(Cl)nc1N1CCCCC1c1ccc2ncsc2c1 (centres unmarked) [compound 341] | D (D represents a maximal response of < 40%) | < 700 | D (D represents a maximal response of < 40%) | < 700 | 
Fc1cnc(Cl)nc1N1CCCCC1c1cc(C(F)(F)F)c2[nH]ncc2c1 (centres unmarked) [compound 352] | D (D represents a maximal response of < 40%) | < 700 | D (D represents a maximal response of < 40%) | < 700 | 
Fc1ccc(Cl)nc1N1CCCCC1c1cncnc1 (centres unmarked) [compound 382] | D (D represents a maximal response of < 40%) | < 700 | D (D represents a maximal response of < 40%) | < 700 | 
C#Cc1cccc(N2CCCCC2c2cccc(C(F)(F)F)n2)c1 (centres unmarked) [compound 451] |  | > 2100 |  | > 2100 | β-arr Max. Resp. [1, 8]: F (F represents a maximal response of > 60%); cAMP Max. Resp. [2, 9]: D (D represents a maximal response of < 40%)
Fc1cnc(Cl)nc1N1CCCCC1c1ccnc2ccccc12 (centres unmarked) [compound 283] | D (D represents a maximal response of < 40%) | > 2100 | F (F represents a maximal response of > 60%) | > 2100 | 
Cc1ncc(F)c(N2CCCCC2c2cccc(C(F)(F)F)c2)n1 (centres unmarked) [compound 269] | F (F represents a maximal response of > 60%) | > 2100 | D (D represents a maximal response of < 40%) | > 2100 | 
COc1cnc(C2CCCCN2c2nc(Cl)ncc2F)nc1Cl (centres unmarked) [compound 379] | D (D represents a maximal response of < 40%) | < 700 | D (D represents a maximal response of < 40%) | < 700 | 
O=c1[nH]c2ccc(C3CCCCN3c3nc(Cl)ncc3F)cc2o1 (centres unmarked) [compound 279] | D (D represents a maximal response of < 40%) | > 2100 | F (F represents a maximal response of > 60%) | > 2100 | 
